Laboratory results as given in patent US20240342186A1, “PYRIDINE DERIVATIVES WITH N-LINKED CYCLIC SUBSTITUENTS AS cGAS INHIBITORS” (Boehringer Ingelheim International GmbH, priority 2021, published 2024).
Like-named read-outs stand apart in the source and are kept apart here.

Assays:
[1] = tested on: cellular cGAS activity in baculovirus-stimulated THP1-Dual cells (IRF dependent Lucia luciferase reporter); experiment: Human cGAS cell assay: inhibition of IFN induction in virus-stimulated THP1 cells (THP1(vir) IC50); type: cell-based; settings: Homo sapiens, THP1-Dual
Method in brief: (§1)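 THP1-Dual cells with IRF-dependent Lucia luciferase reporter, stimulated by empty baculovirus (dsDNA delivery activating cGAS) or, for the counter assay, directly by cGAMP. 5000 cells/well, 8 concentrations from 10 μM top, 1% DMSO, 18 h at 37 °C; luminescence read, IC50 by 4-parameter logistic fit versus unstimulated low control.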

[2] = target: cGAS (Homo sapiens (Human), UniProt Q8N884); experiment: Human cGAS enzyme assay (hcGAS IC50, in vitro), cGAMP formation by RapidFire MS; type: biochemical;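 further: enzyme activated by 45 bp dsDNA with GTP and ATP (30 µM each), 60 min compound pre-incubation then 90 min reaction, cGAMP relative to cyclic-di-GMP internal standard, 8-point dilutions up to 10 µM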
[3] = tested on: cGAMP-stimulated THP1-Dual cells (pathway directly downstream of cGAS); experiment: cGAMP stimulated counter cell assay: inhibition of IFN induction in cGAMP-stimulated THP1 cells (THP1(cGAMP) IC50); type: cell-based, human; settings: for IC50: Homo sapiens, THP1-Dual, read-out: THP1(cGAMP) IC50 (converted); for Ratio THP1(cGAMP) IC50 / THP1(vir) IC50: selectivity for cGAS inhibition
Method in brief: as §1

[4] = tested on: cellular cGAS activity in dsDNA-stimulated human whole blood; experiment: Human whole blood assay (hWB IC50): IFNα2α production after dsDNA transfection; type: cell-based
Method in brief: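 Citrated blood from healthy donors preincubated 60 min at room temperature with compound (top 10 µM, ~1:5 steps, 0.1% DMSO), then transfected with dsDNA/Fugene and incubated 22 h at 37 °C. Plasma IFNα2α measured by MSD immunoassay; IC50 from 4-parameter fit of % control (stimulated vs unstimulated).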

[5] = inhibition of IFN induction in virus-stimulated THP1 cells, read-out: THP1(vir) IC50
[6] = biochemical (in vitro) cGAS inhibition
[7] = inhibition of IFN induction in cGAMP-stimulated THP1 cells
[8] = inhibition of IFN induction in dsDNA-stimulated human whole blood

Sequence of cGAS (Q8N884 whole entry): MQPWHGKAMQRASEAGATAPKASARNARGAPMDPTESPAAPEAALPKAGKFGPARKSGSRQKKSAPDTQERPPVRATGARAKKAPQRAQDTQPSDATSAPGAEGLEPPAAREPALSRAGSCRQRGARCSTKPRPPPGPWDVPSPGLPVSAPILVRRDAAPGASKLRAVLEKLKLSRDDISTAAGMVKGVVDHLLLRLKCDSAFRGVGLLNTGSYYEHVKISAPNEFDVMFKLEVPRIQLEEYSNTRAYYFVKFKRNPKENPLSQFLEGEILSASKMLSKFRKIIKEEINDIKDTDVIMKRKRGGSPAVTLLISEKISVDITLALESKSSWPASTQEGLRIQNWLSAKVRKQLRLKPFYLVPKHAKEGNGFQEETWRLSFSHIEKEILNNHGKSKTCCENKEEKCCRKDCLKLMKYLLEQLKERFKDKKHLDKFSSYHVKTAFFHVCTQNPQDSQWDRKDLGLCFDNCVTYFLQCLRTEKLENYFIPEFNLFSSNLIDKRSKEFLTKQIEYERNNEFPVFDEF

SMILES	IC50 [1, 5] [nM]	IC50 [2, 6] [nM]	IC50 [4, 8] [nM]	IC50 [3, 7] [nM]	Ratio THP1(cGAMP) IC50 / THP1(vir) IC50 [3]	IC50 ([1]; read-out: THP1(vir) IC50, virus-stimulated THP1 cells, IFN induction) [nM]	IC50 ([2]; biochemical (in vitro), human cGAS, 45 bp dsDNA, GTP/ATP) [nM]	IC50 ([3]; cGAMP-stimulated THP1 cells, counter assay) [nM]	IC50 ([4]; dsDNA-stimulated human whole blood, IFN induction) [nM]
COC(=O)[C@@H]1C[C@H](Oc2ncccc2N2CCOC3(COC3)[C@@H]2C)CN1c1nc(C(F)F)nc2c1oc1ccccc12 [Example P01, Methyl (2S,4S)-4-({3-[(9S)-9-methyl-2,5-dioxa-8-azaspiro[3.5]nonan-8-yl]pyridin-2-yl}oxy)-1-[4-(difluoromethyl)-8-oxa-3,5-diazatricyclo[7.4.0.0^2,7]trideca-1(9),2(7),3,5,10,12-hexaen-6-yl]pyrrolidine-2-carboxylate]	–	–	–	–	–	358	> 9960	26100	1310
C#Cc1cnc(O[C@H]2C[C@@H](C(=O)O)N(c3nc(C(F)(F)F)nc4c3oc3ccccc34)C2)c(N2CCOC3(COC3)[C@@H]2C)c1 [Example 1.12]	7	3	15	11900	1769	–	–	–	–
CC1(C#N)CN(c2cc(Cl)cnc2O[C@H]2C[C@@H](C(=O)O)N(c3nc(C(F)(F)F)nc4c3oc3ccccc34)C2)CCO1 (some centres unmarked) [Example 1.03]	399	7	8450	15100	38	–	–	–	–
C#Cc1cnc(O[C@H]2C[C@@H](C(=O)O)N(c3nc(C)nc4c3oc3ccccc34)C2)c(N2CCOC[C@@H]2C)c1 [Example 1.29]	296	4	61	> 16600	>56	–	–	–	–
C[C@@H]1N(c2cc(Cl)cnc2O[C@H]2C[C@@H](C(=O)O)N(c3nc(C(F)F)nc4c3oc3ccccc34)C2)CCOC12COC2 [Example 1.09]	19	2	19	22100	1169	–	–	–	–

More lines, main results first:

IC50 [1, 5] [nM]	IC50 [2, 6] [nM]	IC50 [4, 8] [nM]	SMILES	IC50 [3, 7] [nM]	Ratio THP1(cGAMP) IC50 / THP1(vir) IC50 [3]	IC50 ([1]; read-out: THP1(vir) IC50, virus-stimulated THP1 cells, IFN induction) [nM]	IC50 ([2]; biochemical (in vitro), human cGAS, 45 bp dsDNA, GTP/ATP) [nM]	IC50 ([3]; cGAMP-stimulated THP1 cells, counter assay) [nM]	IC50 ([4]; dsDNA-stimulated human whole blood, IFN induction) [nM]
5	7	95	CC#Cc1cnc(O[C@H]2C[C@@H](C(=O)O)N(c3nc(C(F)(F)F)nc4c3oc3ccccc34)C2)c(N2CCOC3(CC3)[C@@H]2C)c1 [Example 6.03]	10900	2273	–	–	–	–
858	8	506	C#Cc1cnc(O[C@H]2C[C@@H](C(=O)O)N(c3nc(C(F)F)nc4c3oc3ccccc34)C2)c(N2CCOCC2)c1 [Example 2.01, (2S,4S)-1-[4-(Difluoromethyl)-8-oxa-3,5-diazatricyclo[7.4.0.0^2,7]trideca-1(13),2,4,6,9,11-hexzen-6-yl]-4-{[5-ethynyl-3-(morpholin-4-yl)pyridin-2yl]oxy}-pyrrolidine-2-carboxylic acid]	> 16600	>19	–	–	–	–
8	9	8	CNc1cc(-c2cnc(O[C@H]3C[C@@H](C(=O)O)N(c4nc(C(F)(F)F)nc5c4oc4ccccc45)C3)c(N3CCOC4(COC4)[C@@H]3C)c2)ccn1 [Example 3.09]	4820	585	–	–	–	–
24	4	55	C[C@@H]1N(c2cc(-c3ccnc(C#N)c3)cnc2O[C@H]2C[C@@H](C(=O)O)N(c3nc(C(F)F)nc4c3oc3ccccc34)C2)CCOC12COC2 [Example 3.21]	11700	483	–	–	–	–
4	2	8	C#Cc1cnc(O[C@H]2C[C@@H](C(=O)O)N(c3nc(Cl)nc4c3oc3ccccc34)C2)c(N2CCOC3(COC3)[C@@H]2C)c1 [Example 2.05]	10800	3018	–	–	–	–
752	7	1030	C#Cc1cnc(O[C@H]2C[C@@H](C(=O)O)N(c3nc(C(F)(F)F)nc4c3oc3ccccc34)C2)c(N2CCOCC2)c1 [Example 2.02]	> 16600	>22	–	–	–	–
591	66	1570	C[C@@H]1N(c2cc(-c3ccc(OC4CCOCC4)nc3)cnc2O[C@H]2C[C@@H](C(=O)O)N(c3nc(C(F)(F)F)nc4c3oc3ccccc34)C2)CCOC12COC2 [Example 3.29]	6540	11	–	–	–	–
